A short description of series [1]: Chemical stability at 30° C./65% relative humidity for 4 weeks (HPLC). Conditions: stable means purity change less than about 1% by HPLC, solid state form maintained. It counts as physicochemical.
The nature of series [2]: Investigation of hygroscopicity (dynamic vapour sorption) with Karl-Fischer titration of the product. It counts as physicochemical. As to the method:
Karl-Fischer titration was carried out using […] from Merck (HX908240). The instructions of the manual were followed and each sample was analyzed in triplicate. […] Investigation of Hygroscopicity (Dynamic Vapour Sorption (DVS)) Instrument: SPSx-1μ, (Projekt Messtechnik) Temperature: 25° C. Humidity cycles: [table] […] Then the sample was analyzed by XRD diffraction.

Series [3] in a line: Stability and hygroscopicity at 40° C./75% relative humidity. It is filed as physicochemical. The text has this:
The term “non-hygroscopic” as used herein, and unless stated otherwise, refers to crystalline Afatinib di-maleate uptaking/absorbing less than 0.2% (w/w) of atmospheric water to the crystalline Afatinib di-maleate in the below specified conditions, as measured by Karl-Fischer (KF) titration or by monitoring the weight increase during dynamic vapour sorption (DVS) test.

The conditions of series [4]: crystalline form of US 2005/0085495 (WO2005/037824); cited from earlier work.

“And” between values parts separate entries of the source, which are not always exact repeats. Equal entries are not always repeated. Where two headings read alike, the source gives them in different places.

For the molecule `CN(C)C/C=C/C(=O)Nc1cc2c(Nc3ccc(F)c(Cl)c3)ncnc2cc1O[C@H]1CCOC1` [Form C, (E)-4-Dimethylamino-but-2-enoic acid {4-(3-chloro-4-fluoro-phenylamino)-7-[(S)-(tetrahydro-furan-3-yl)oxy]-quinazolin-6-yl}-amide], the chemical stability entry in series [1] was “chemically stable”.

For the molecule `CN(C)C/C=C/C(=O)Nc1cc2c(Nc3ccc(F)c(Cl)c3)ncnc2cc1O[C@H]1CCOC1` [Form E, (E)-4-Dimethylamino-but-2-enoic acid {4-(3-chloro-4-fluoro-phenylamino)-7-[(S)-(tetrahydro-furan-3-yl)oxy]-quinazolin-6-yl}-amide], in series [2] (Karl-Fischer titration, average of triplicate, after DVS of Form A at 25° C.), the “water content (% by weight), average” value is 7.00 % by weight. For the same molecule, the “water content (% by weight)” value in series [2] (Karl-Fischer titration, single determinations of a triplicate, after DVS humidity cycles of Form A at 25° C., 0-95% relative humidity, listed as Afatinib di-maleate after DVS of Form A) is 6.95 % by weight and 7.15 % by weight and 6.90 % by weight. Besides, the “decomposition after DVS” value in series [2] (obtained product analysed by 1H-NMR and HPLC) is reported as “no decomposition”. The hygroscopicity entry in series [3] is listed as “not hygroscopic”. The polymorphic stability result in series [3] (stable means less than 1% converts to any other solid state form) was “polymorphically stable”.

Regarding `CN(C)C/C=C/C(=O)Nc1cc2c(Nc3ccc(F)c(Cl)c3)ncnc2cc1O[C@H]1CCOC1` [Afatinib di-maleate, (E)-4-Dimethylamino-but-2-enoic acid {4-(3-chloro-4-fluoro-phenylamino)-7-[(S)-(tetrahydro-furan-3-yl)oxy]-quinazolin-6-yl}-amide], in series [4], the hygroscopicity entry is reported as “limited hygroscopisity” and the polymorphic stability entry is reported as “polymorphically stable”.

The values above are taken from patent publication US20150232457A1, “CRYSTALLINE FORMS OF AFATINIB DI-MALEATE” (RATIOPHARM GMBH, priority 2011, published 2015).
